These results are taken from patent publication US11440923B2, “Substituted macrocyclic indole derivatives” (Bayer Aktiengesellschaft, priority 2017, dated 2022).

Where a name gives a salt, the structure may show the parent alone. Read-outs that look alike come from different tables or passages of the source.

Format in all cases: cell-based
Series [1] has as its system SUDHL5 cells. Put plainly: Induction of cytotoxicity in SUDHL5 cells (Assay 6). The following applies: 5 h, CellTiter-Glo, read-out: Cytotox SUDHL5 IC50 (median). In outline: (§1)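 Overnight seeding, 37 °C; 5 h compound exposure; CellTiter-Glo, 15 min RT shake; luminescence read. No-cell medium control.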
Series [2] has as its system SUDHL10 cells. As to the kind of experiment: Induction of caspase-3/7 activity in SUDHL10 cells (Assay 4). In outline: (§2)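 Caspase-3/7 activity measured in DLBCL lines after 3 h compound exposure at 37 °C, following overnight plating; Caspase-Glo 3/7 luminescence read after 1 h at 37 °C. Medium-only background subtracted, values normalized to mean of DMSO-treated cells.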

Series [3] relates to SUDHL5 cells. Put plainly: Induction of caspase-3/7 activity in SUDHL5 cells (Assay 4). In outline:
as §2

Series [4] has as its system SUDHL10 cells. As to the kind of experiment: Induction of cytotoxicity in SUDHL10 cells (Assay 6). The following applies: 5 h, CellTiter-Glo, read-out: Cytotox SUDHL10 IC50 (median). The procedure, abridged:
as §1

[5] abbreviates: Homo sapiens, SU-DHL10, 3 h, caspase-3/7 induction, 3 h; read-out: Caspase SUDHL10 EC50 (median).
Setting [6] is: Homo sapiens, SU-DHL-5, 3 h, caspase-3/7 induction, 3 h; read-out: Caspase SUDHL5 EC50 (median).
The mark [7] stands for this setting: caspase-3/7 induction, 3 h; read-out: Caspase SUDHL10 EC50 (median).
Setting [8] is: caspase-3/7 induction, 3 h; read-out: Caspase SUDHL5 EC50 (median).
Setting [9] is: read-out: Caspase SUDHL10 EC50 (median); caspase-3/7 induction, 3 h.
[10] abbreviates: read-out: Caspase SUDHL5 EC50 (median); caspase-3/7 induction, 3 h.

On to `CCc1c2c(nn1C)C(C(F)(F)F)OCCCCn1c(C(=O)O)c(CCCOc3cccc4ccccc34)c3ccc(Cl)c-2c31` (racemic) [Example 27, (rac)-4-Chloro-3-ethyl-2-methyl-7-{3-[(naphthalen-1-yl)oxy]propyl}-15-(trifluoromethyl)-2,10,11,12,13,15-hexahydropyrazolo[4′,3′:9,10][1,6]oxazacycloundecino[8,7,6-hi]indole-8-carboxylic Acid], for which the IC50 in series [1] (Homo sapiens, SU-DHL-5, 5 h) came out at 1900 nM; in series [4] (Homo sapiens, SU-DHL10, 5 h), 9600 nM. Also, the 50% effective concentration (EC50) in series [2] (setting [5]) turned out to be 6600 nM; in series [3] (setting [6]) it was 3200 nM.
For `CCc1c2c(nn1C)C(C1CC1)OCCCCn1c(C(=O)O)c(CCCOc3cccc4cc(F)ccc34)c3ccc(Cl)c-2c31` (racemic) [Example 38, (rac)-4-chloro-(15-rac)-cyclopropyl-3-ethyl-7-{3-[(6-fluoronaphthalen-1-yl)oxy]propyl}-2-methyl-2,10,11,12,13,15-hexahydropyrazolo[4′,3′:9,10][1,6]oxazacycloundecino[8,7,6-hi]indole-8-carboxylic Acid], the IC50 was 1500 nM in series [1] (Homo sapiens, SU-DHL-5, 5 h) and 6300 nM in series [4] (Homo sapiens, SU-DHL10, 5 h). Further, the half-maximal effective concentration (EC50) in series [2] (setting [5]) was 5300 nM; in series [3] (setting [6]), 3600 nM.
In the same order, the values of `CCc1c2c(nn1C)C1CCCCN1CCCCn1c(C(=O)O)c(CCCOc3cccc4ccccc34)c3ccc(Cl)c-2c31` (racemic) [Example 102, (rac)-18-chloro-1-ethyl-2-methyl-15-[3-(1-naphthyloxy)propyl]-2,3b,4,5,6,7,9,10,11,12-decahydropyrazolo[3′,4′:8,9]pyrido[1′,2′:6,7][1,6]diazacycloundecino[10,11,1-hi]indole-14-carboxylic Acid] are 800 nM, 950 nM, 1000 nM and 770 nM.
For `CCc1c2c(nn1C)C(CCN1CC(F)(F)C1)OCCCCn1c(C(=O)O)c(CCCOc3cccc4cc(F)ccc34)c3ccc(Cl)c-2c31` (single isomer, unassigned; (+)) [Example 78, (+)-4-chloro-15-[2-(3,3-difluoroazetidin-1-yl)ethyl]-3-ethyl-7-{3-[(6-fluoronaphthalen-1-yl)oxy]propyl}-2-methyl-2,10,11,12,13,15-hexahydropyrazolo[4′,3′:9,10][1,6]oxazacycloundecino[8,7,6-hi]indole-8-carboxylic Acid—N-ethylethanamine Salt], the half-maximal inhibitory concentration (IC50) in series [1] came out at 14 nM; in series [4], 12 nM. For the same compound, the EC50 in series [2] (setting [7]) came out at 9.9 nM; in series [3] (setting [8]), 13 nM.
Turning to `CCc1c2c(nn1C)C1CCCN1CCCCn1c(C(=O)O)c(CCCOc3cccc4cc(F)ccc34)c3ccc(Cl)c-2c31` (single isomer, unassigned; (+)) [Example 105, (+)-17-chloro-1-ethyl-14-{3-[(6-fluoronaphthalen-1-yl)oxy]propyl}-2-methyl-3b,4,5,6,8,9,10,11-octahydro-2H-pyrazolo[3′,4′:8,9]pyrrolo[1′,2′:6,7][1,6]diazacycloundecino[10,11,1-hi]indole-13-carboxylic Acid], the IC50 was determined as 370 nM in series [1] and 290 nM in series [4]. For the same compound, the EC50 in series [2] (setting [7]) is 130 nM; in series [3] (setting [8]) it was 330 nM.
As for `CCc1c2c(nn1C)C(CCN1CCOCC1)OCCCCn1c(C(=O)O)c(CCCOc3cccc4ccccc34)c3ccc(F)c-2c31` (single isomer, unassigned; enantiomer 1) [Example 11, 3-ethyl-4-fluoro-2-methyl-15-[2-(morpholin-4-yl)ethyl]-7-{3-[(naphthalen-1-yl)oxy]propyl}-2,10,11,12,13,15-hexahydropyrazolo[4′,3′:9,10][1,6]oxazacycloundecino[8,7,6-hi]indole-8-carboxylic Acid—N-ethylethanamine Salt (Enantiomer 1)], the IC50 came out at 95 nM in series [1] and 250 nM in series [4]. Further, the EC50 in series [2] (setting [9]) came out at 190 nM; in series [3] (setting [10]), 97 nM.
Regarding `CCc1c2c(nn1C)C(C(F)(F)F)OCCCCn1c(C(=O)O)c(CCCOc3cccc4ccccc34)c3ccc(Cl)c-2c31` (single isomer, unassigned; enantiomer 1) [Example 33, (+)-4-chloro-3-ethyl-2-methyl-7-{3-[(naphthalen-1-yl)oxy]propyl}-15-(trifluoromethyl)-2,10,11,12,13,15-hexahydropyrazolo[4′,3′:9,10][1,6]oxazacycloundecino[8,7,6-hi]indole-8-carboxylic Acid—N-ethylethanamine Salt (Enantiomer 1)], the IC50 in series [1] was determined as 1100 nM; in series [4], 3700 nM. Also, the EC50 came out at 4500 nM in series [2] (setting [9]) and 1800 nM in series [3] (setting [10]).
The like results for `CCc1c2c(nn1C)C(C1CC1)OCCCCn1c(C(=O)O)c(CCCOc3cccc4cc(F)ccc34)c3ccc(Cl)c-2c31` (single isomer, unassigned; enantiomer 1) [Example 39, (+)-4-chloro-15-cyclopropyl-3-ethyl-7-{3-[(6-fluoronaphthalen-1-yl)oxy]propyl}-2-methyl-2,10,11,12,13,15-hexahydropyrazolo[4′,3′:9,10][1,6]oxazacycloundecino[8,7,6-hi]indole-8-carboxylic Acid—N-ethylethanamine Salt (Enantiomer 1)] were, in that order, 1000 nM, 1400 nM, 1500 nM and 750 nM.
Turning to `CCc1c2c(nn1C)C(CCC1CCOCC1)OCCCCn1c(C(=O)O)c(CCCOc3cccc4cc(F)ccc34)c3ccc(Cl)c-2c31` (single isomer, unassigned; enantiomer 1) [Example 61, 4-chloro-3-ethyl-7-{3-[(6-fluoronaphthalen-1-yl)oxy]propyl}-2-methyl-15-[2-(oxan-4-yl)ethyl]-2,10,11,12,13,15-hexahydropyrazolo[4′,3′:9,10][1,6]oxazacycloundecino[8,7,6-hi]indole-8-carboxylic Acid (Enantiomer 1)], the 50% inhibitory concentration (IC50) is 38 nM in series [1] and 29 nM in series [4]. Besides, the EC50 in series [2] (setting [7]) came out at 23 nM; in series [3] (setting [8]), 31 nM.
With `CCc1c2c(nn1C)C(CCC1CCOCC1)OCCCCn1c(C(=O)O)c(CCCOc3cccc4cc(F)ccc34)c3ccc(Cl)c-2c31` (single isomer, unassigned; enantiomer 1) [Example 63, (+)-4-chloro-3-ethyl-7-{3-[(6-fluoronaphthalen-1-yl)oxy]propyl}-2-methyl-15-[2-(oxan-4-yl)ethyl]-2,10,11,12,13,15-hexahydropyrazolo[4′,3′:9,10][1,6]oxazacycloundecino[8,7,6-hi]indole-8-carboxylic Acid—N-ethylethanamine Salt (Enantiomer 1)], the IC50 in series [1] worked out at 49 nM; in series [4], 67 nM. The EC50 in series [2] (setting [9]) came out at 53 nM; in series [3] (setting [10]) it was 35 nM.
On to `CCc1c2c(nn1C)C(CCC(C)(C)O)OCCCCn1c(C(=O)O)c(CCCOc3cccc4cc(F)ccc34)c3ccc(Cl)c-2c31` (single isomer, unassigned; enantiomer 1) [Example 75, (+)-4-chloro-3-ethyl-7-{3-[(6-fluoronaphthalen-1-yl)oxy]propyl}-15-(3-hydroxy-3-methylbutyl)-2-methyl-2,10,11,12,13,15-hexahydropyrazolo[4′,3′:9,10][1,6]oxazacycloundecino[8,7,6-hi]indole-8-carboxylic Acid—N-ethylethanamine Salt (Enantiomer 1)], for which the concentration for half-maximal inhibition (IC50) in series [1] worked out at 12 nM; in series [4], 9.7 nM. Moreover, the figures for the EC50 in series [2] (setting [7]) and in series [3] (setting [8]) were 6.6 nM and 9.7 nM, respectively.
